# US20190083449A1, “COMBINATION THERAPY WITH AN ANTI-HYALURONAN AGENT AND THERAPEUTIC AGENT” (Halozyme, Inc., priority 2012, published 2019)
# What was measured:
# B16 melanoma model = conditions: oral administration at 600 mg/kg/d; cited from earlier work
# [1] = route (IV or PO); cited from earlier work
# cytidine deaminase = biological target: T1, cytidine deaminase (Homo sapiens, UniProt P32320); conditions: cited from earlier work; for Km: enzyme purified from human liver
# T1 construct: for the enzyme purified from human liver; from tissue; host or cells: human liver
# [2] = test system: carbohydrate antigen 19-9 (CA19-9); assay: Serum CA19-9 tumor biomarker ELISA in BxPC3 xenograft model; type: in vivo, mouse; conditions: day 20 of first dosing cycle
# Protocol: (§1) Biomarkers carbohydrate antigen 19-9 (CA19-9) and carcinoembryonic antigen (CEA) associated with pancreatic cancer were tested to measure therapeutic response. Animals were treated as described in part A. Serum was collected from satellite animals (n≤3) from each group on day 0, 6, 13 and 20 of the first dosing cycle. Human CA19-9 was measured using a CA 19-9 ELISA kit (Catalog No. CA199T, Calbiotech, Spring Valley, Calif.) and CEA tumor antigen was measured using a CEA ELISA kit (Catalog No. CE062T, Calbiotech, Spring Valley, Calif.).
# [3] = test system: carcinoembryonic antigen (CEA); assay: Serum CEA tumor biomarker ELISA in BxPC3 xenograft model; type: in vivo, mouse; conditions: day 20 of first dosing cycle
# Protocol: as §1
# [4] = test system: BxPC3 pancreatic cancer cell line; assay: Tumor growth inhibition in BxPC3 xenograft model, PEGPH20, nab-paclitaxel and/or gemcitabine; type: in vivo, mouse
# Protocol: The human pancreatic cancer xenograft model described in Example 1 was used to evaluate the antitumor effects of PEGPH20 and nab-paclitaxel combination therapy in further combination with gemcitabine treatment. Prior to performing the study, a route and dose level for gemcitabine was selected based. […] The results are depicted in FIG. 2. […] Gemcitabine was administered intraperitoneally 24 hours after PEGPH20 and/or nab-paclitaxel every 7 days for three weeks of the dose cycle. […] The results are depicted in FIG. 3. […] Table 6 depicts the results as the percentage growth inhibition relative to vehicle as determined from tumor volume measurements at day 26.
# [5] = rapid deamination by deoxycytidine deaminase to dFdU; cited from earlier work
# pancreatic cancer = conditions: cited from earlier work
# [6] = test system: BxPC3 pancreatic cancer cell line; assay: Median survival time to endpoint in BxPC3 xenograft model; type: in vivo, mouse; conditions: three four-week dosing cycles; PEGPH20 4.5 mg/mL, nab-paclitaxel 10 mg/kg, gemcitabine 180 mg/kg; endpoint tumor >2000 mm^3, >20% bodyweight loss, duress or death
# Protocol: Following the first four week dosing cycle as set forth in part A, the dosing cycle was repeated two times and time to survival endpoint was followed over time. Briefly, in each dosing cycle, animals were treated with vehicle or PEGPH20 (4.5 mg/mL) with or without nab-paclitaxel (10 mg/kg) intravenously twice a week for four weeks. In each cycle, groups receiving gemcitabine were administered gemcitabine (180 mg/kg) 24 hours after PEGPH20 and/or nab-paclitaxel every 7 days for three weeks of the dose cycle. Time to survival endpoint, a surrogate of animal survival, was defined as (a) time to tumor volume of greater than 2000 mm^3, (b) time to a greater than 20% bodyweight loss, or (c) time to animal duress or death.
# T1 sequence (P32320 whole entry): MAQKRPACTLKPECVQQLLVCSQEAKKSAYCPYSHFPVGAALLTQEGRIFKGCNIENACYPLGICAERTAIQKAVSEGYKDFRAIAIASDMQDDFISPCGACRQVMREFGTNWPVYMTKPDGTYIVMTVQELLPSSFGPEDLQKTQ
smiles,measurement,setting,value
"Cc1cc(=O)oc2cc(O)ccc12 [4-MU, 7-hydroxy-4-methylcoumarin]",reduction of metastases,B16 melanoma model,64%
C[C@]12CCC(=O)C=C1CC[C@@H]1[C@@H]2[C@@H](O)C[C@@]2(C)[C@H]1CC[C@]2(O)C(=O)CO [Hydrocortisone],Equivalent Potency,[1],20 mg
C[C@H]1C[C@@H]2[C@H]([C@@H](O)C[C@@]3(C)[C@H]2CC[C@]3(O)C(=O)COC(=O)CCC(=O)O)[C@@]2(C)C=CC(=O)C=C12 [Methylprednisolone sodium succinate],Equivalent Potency,[1],4 mg
C[C@]12C=CC(=O)C=C1CC[C@@H]1[C@@H]2[C@@H](O)C[C@@]2(C)[C@H]1CC[C@]2(O)C(=O)CO [Prednisolone],Equivalent Potency,[1],5 mg
"Nc1ncn([C@H]2C[C@H](O)[C@@H](CO)O2)c(=O)n1 [decitabine, 5-aza-2′-deoxycytidine]",Km,cytidine deaminase,250 µM
Nc1ccn([C@H]2C[C@H](O)[C@@H](CO)O2)c(=O)n1 [deoxycytidine],rate of deamination relative to decitabine,cytidine deaminase; at equal concentrations,about 6 fold
same,Km,cytidine deaminase,12 µM
"Nc1ccn([C@@H]2O[C@H](CO)[C@@H](O)C2(F)F)c(=O)n1 [gemcitabine, 2′-deoxy-2′,2′-difluorocytidine]",level of CA19-9 marker in serum,[2],approximately similar to vehicle only control
same,level of CEA marker in serum,[3],approximately 15 ng/mL
same,Tumor Growth Inhibition (% of vehicle control),"[4]; day 26, PEGPH20 4.5 mg/kg i.v. 2x/wk, nab-paclitaxel 10 mg/kg i.v. 2x/wk, gemcitabine 180 mg/kg i.p. weekly",25%
same,antitumor activity (in words),"[4]; four week dose cycle, FIG. 3",some antitumor activity
same,tumor growth compared to vehicle only (in words),"[4]; gemcitabine 60, 120, 180 and 240 mg/kg once a week (day 0, 7, 14, 21)",inhibited tumor growth at all doses tested
same,half-life in plasma,[5],approximately 10 minutes
same,survival compared to patients who had surgery alone,pancreatic cancer; adjuvant setting,increased survival by two months
same,median survival,pancreatic cancer; gemcitabine monotherapy,over 5 months
same,Median Survival Time,[6],38 days
